We go through four molecules from patent US20240277700A1, “COMPOSITIONS AND METHODS FOR TREATING AND PREVENTING INTERSTITIAL CYSTITIS” (Hista RX LLC, priority 2021, published 2024).

The subject of test [1] is patient with interstitial cystitis. In words: Example 2: case report, patient with chronic interstitial cystitis and IBS-diarrhea. The note with it: person; before the combination.
Test [2] has as its system patients with IC. The note with it: cited from earlier work.
Test [3] concerns patient with painful bladder syndrome. In words: Example 3: case report, patient with chronic painful bladder syndrome. Format: in vivo, human. Conditions: person; prior treatment without the combination.

Consider Sucralfate, for which the “resolution of urologic and/or gastrointestinal conditions by previous medications” value in test [1] was “without resolution”.

With `CN/C(=N/CCSCc1nc[nH]c1C)NC#N` [cimetidine], in test [2] (monotherapy 300 mg bid (600 mg daily) for one month, case series of 9 patients), the “symptomatic relief of IC” value was “effective”.

Consider `OCCOCCN1CCN(C(c2ccccc2)c2ccc(Cl)cc2)CC1` (centres unmarked) [Hydroxyzine], for which the “benefit in the treatment of IC” value in test [2] (monotherapy) was “some limited benefit”. Also, in test [3], the “symptomatic relief by prior treatment” value is “insufficient”.

Take `COc1ccc2nc([S@@+]([O-])Cc3ncc(C)c(OC)c3C)[nH]c2c1` [Esomeprazole]: the “resolution of urologic and/or gastrointestinal conditions by previous medications” value in test [1] is on record as “without resolution”.
